Experimental data taken from PMC9025901, “New Genetic Bomb Trigger: Design, Synthesis, Molecular Dynamics Simulation, and Biological Evaluation of Novel BIBR1532-Related Analogs Targeting Telomerase against Non-Small Cell Lung Cancer” (Pharmaceuticals, 2022).

Key:
OVCAR-4 = assay: NCI-60 in vitro anticancer screening (SRB); settings: OVCAR-4, Ovarian cancer; 10 µM, 48 h
Method: (§1) The cancer screening panel’s human tumor 60 cell lines were cultured in the RPMI 1640 medium with (5%) fetal bovine serum and (2 mM) L-glutamine. For a screening experiment, cells were injected onto 96-well microtiter plates (100 µL), with plating densities varying from 5 to 40 × 10^3 cells per well, depending on different cell lines’ doubling times. Before introducing experimental drugs, the microtiter plates were incubated overnight at 37 °C, 95% air, 5% CO2, and 100% relative humidity after cell injection. TCA was employed to keep each cell line in place overnight, resembling a computation of the cell population for every cell line at the time of the addition of the drug. The experimental drugs were chilled after solubilization in DMSO at 400 times the final maximum test concentration. At the moment of the addition of the drug, the aliquot of the frozen concentrate was thawed and diluted to twice the required final maximum concentration with the complete medium containing (50 µg/mL) gentamicin. […] The bound dye was then solubilized with a (10 mM) trizma base, and absorbance was calculated at 515 nm on an automatic reader. […] The % growth of treated cells was established using seven absorbance measurements and compared to untreated control cells [57].

M14 = assay: NCI-60 in vitro anticancer screening (SRB); settings: M14, Melanoma; 10 µM, 48 h
Method: (§2) The cancer screening panel’s human tumor 60 cell lines were cultured in the RPMI 1640 medium with (5%) fetal bovine serum and (2 mM) L-glutamine. For a screening experiment, cells were injected onto 96-well microtiter plates (100 µL), with plating densities varying from 5 to 40 × 10^3 cells per well, depending on different cell lines’ doubling times. Before introducing experimental drugs, the microtiter plates were incubated overnight at 37 °C, 95% air, 5% CO2, and 100% relative humidity after cell injection. TCA was employed to keep each cell line in place overnight, resembling a computation of the cell population for every cell line at the time of the addition of the drug. The experimental drugs were chilled after solubilization in DMSO at 400 times the final maximum test concentration. At the moment of the addition of the drug, the aliquot of the frozen concentrate was thawed and diluted to twice the required final maximum concentration with the complete medium containing (50 µg/mL) gentamicin. The required final concentration of the drug (10 µM) was reached by adding 100 µL aliquots of these definite dilutions of the drug to suitable microtiter wells previously holding a medium of 100 µL. […] The bound dye was then solubilized with a (10 mM) trizma base, and absorbance was calculated at 515 nm on an automatic reader. […]

OVCAR-8 = assay: NCI-60 in vitro anticancer screening (SRB); settings: OVCAR-8, Ovarian cancer; 10 µM, 48 h
Method: as §1

SR = assay: NCI-60 in vitro anticancer screening (SRB); settings: Leukemia, 10 µM, 48 h
Method: as §1

HCT-116 = assay: NCI-60 in vitro anticancer screening (SRB); settings: HCT-116, Colon cancer; 10 µM, 48 h
Method: as §1

[1] = biological target: T1, telomerase inside living cancer cells NCI-H23 (Homo sapiens, UniProt O14746); assay: Living-cell TRAP assay, NCI-H23; type: cell-based; settings: percent of control cells, 10 µM, 48 h
T1 construct: host or cells: NCI-H23
T1 sequence (O14746 whole entry): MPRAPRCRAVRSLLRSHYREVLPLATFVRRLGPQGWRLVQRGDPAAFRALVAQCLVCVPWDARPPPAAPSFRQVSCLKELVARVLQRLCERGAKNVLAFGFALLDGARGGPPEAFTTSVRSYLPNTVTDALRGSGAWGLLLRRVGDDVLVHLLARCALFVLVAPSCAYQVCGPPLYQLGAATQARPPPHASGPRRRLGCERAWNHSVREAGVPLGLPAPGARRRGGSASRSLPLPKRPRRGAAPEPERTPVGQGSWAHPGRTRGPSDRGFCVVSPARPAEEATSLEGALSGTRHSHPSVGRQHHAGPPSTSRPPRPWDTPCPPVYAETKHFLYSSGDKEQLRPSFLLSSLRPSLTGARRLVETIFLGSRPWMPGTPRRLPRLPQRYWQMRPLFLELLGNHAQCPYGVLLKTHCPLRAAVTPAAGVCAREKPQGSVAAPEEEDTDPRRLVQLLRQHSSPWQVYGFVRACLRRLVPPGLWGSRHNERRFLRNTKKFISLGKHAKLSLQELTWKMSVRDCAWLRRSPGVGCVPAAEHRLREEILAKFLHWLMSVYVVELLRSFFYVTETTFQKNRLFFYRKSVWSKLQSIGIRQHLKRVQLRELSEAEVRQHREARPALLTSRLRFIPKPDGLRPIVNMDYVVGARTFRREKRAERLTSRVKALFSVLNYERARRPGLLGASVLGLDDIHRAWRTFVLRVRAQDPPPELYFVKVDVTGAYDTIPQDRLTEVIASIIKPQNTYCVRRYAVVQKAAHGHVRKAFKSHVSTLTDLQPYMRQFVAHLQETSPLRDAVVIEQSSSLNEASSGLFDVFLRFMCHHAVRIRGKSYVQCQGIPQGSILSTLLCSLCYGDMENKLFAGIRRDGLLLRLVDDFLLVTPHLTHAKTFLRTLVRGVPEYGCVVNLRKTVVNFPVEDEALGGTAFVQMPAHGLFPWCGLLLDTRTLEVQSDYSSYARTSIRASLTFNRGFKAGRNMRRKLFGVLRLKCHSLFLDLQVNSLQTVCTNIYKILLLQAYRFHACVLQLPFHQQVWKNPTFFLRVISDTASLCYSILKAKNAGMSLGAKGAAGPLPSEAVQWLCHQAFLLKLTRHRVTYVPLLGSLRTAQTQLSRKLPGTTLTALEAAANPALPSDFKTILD
T1 sequence (O60832 whole entry partner): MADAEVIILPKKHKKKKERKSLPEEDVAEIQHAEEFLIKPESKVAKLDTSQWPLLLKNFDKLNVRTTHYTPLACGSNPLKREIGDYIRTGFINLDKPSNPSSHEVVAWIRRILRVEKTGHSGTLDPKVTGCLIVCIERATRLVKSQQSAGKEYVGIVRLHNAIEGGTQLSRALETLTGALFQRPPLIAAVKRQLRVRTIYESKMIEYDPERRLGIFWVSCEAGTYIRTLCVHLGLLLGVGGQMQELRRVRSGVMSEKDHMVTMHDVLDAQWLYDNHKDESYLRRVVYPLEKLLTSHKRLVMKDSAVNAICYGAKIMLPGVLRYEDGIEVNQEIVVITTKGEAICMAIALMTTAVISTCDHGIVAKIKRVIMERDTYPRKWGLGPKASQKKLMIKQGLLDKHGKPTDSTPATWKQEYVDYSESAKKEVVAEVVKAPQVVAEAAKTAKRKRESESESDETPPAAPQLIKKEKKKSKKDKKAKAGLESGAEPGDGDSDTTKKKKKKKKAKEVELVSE
T1 sequence (Q9NX24 whole entry partner): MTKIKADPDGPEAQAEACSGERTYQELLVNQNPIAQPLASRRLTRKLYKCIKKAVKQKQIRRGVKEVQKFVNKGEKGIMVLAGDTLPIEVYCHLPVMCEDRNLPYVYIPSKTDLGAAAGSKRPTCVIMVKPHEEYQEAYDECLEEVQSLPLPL
T1 sequence (Q9NPE3 whole entry partner): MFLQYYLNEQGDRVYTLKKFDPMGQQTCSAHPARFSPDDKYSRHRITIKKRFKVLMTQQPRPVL
T1 sequence (Q9NY12 whole entry partner): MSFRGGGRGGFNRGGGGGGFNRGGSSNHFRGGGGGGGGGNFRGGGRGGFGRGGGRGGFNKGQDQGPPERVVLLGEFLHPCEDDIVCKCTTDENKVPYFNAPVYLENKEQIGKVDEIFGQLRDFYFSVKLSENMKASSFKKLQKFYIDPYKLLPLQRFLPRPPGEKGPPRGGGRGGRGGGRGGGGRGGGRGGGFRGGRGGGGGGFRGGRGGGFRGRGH
T1 sequence (Q9BUR4 whole entry partner): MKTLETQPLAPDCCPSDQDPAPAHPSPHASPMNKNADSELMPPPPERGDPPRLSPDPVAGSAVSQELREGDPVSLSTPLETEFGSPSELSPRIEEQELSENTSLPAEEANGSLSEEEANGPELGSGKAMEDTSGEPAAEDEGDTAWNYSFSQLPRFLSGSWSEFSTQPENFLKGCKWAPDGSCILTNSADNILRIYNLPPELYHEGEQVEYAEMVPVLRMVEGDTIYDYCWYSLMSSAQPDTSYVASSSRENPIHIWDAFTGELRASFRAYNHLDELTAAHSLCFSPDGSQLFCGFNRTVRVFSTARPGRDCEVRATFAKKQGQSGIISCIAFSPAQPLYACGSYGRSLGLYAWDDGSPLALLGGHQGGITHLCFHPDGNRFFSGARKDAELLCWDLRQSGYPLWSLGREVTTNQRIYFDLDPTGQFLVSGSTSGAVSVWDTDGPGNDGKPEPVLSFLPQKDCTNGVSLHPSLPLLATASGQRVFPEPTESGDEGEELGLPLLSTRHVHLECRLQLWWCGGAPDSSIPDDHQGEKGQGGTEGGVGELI
Method: The Telomeric Repeat Amplification Protocol (TRAP) [61] was used to evaluate the activity of telomerase, with some changes that we have previously described [62, 63]. A549 cells (human epithelial cell lung carcinoma, ATCC, Manassas, VA) were lysed in (10 mM) Tris-HCl, pH 7.5, (1 mM) EGTA, (1 mM) MgCl2, (5 mM) 2-mercaptoethanol, (0.1 mM) PMSF, (0.5%) CHAPS, and (10%) glycerol (Sigma-Aldrich, St. Louis, MO, USA) and centrifugation. The supernatants were kept at -80 °C. The BCA-1 Protein Assay Kit was used to assess the protein concentration in cell extracts (Sigma-Aldrich, St. Louis, MO, USA). […] To inactivate telomerase, the cells were elongated for 30 min at 37 °C and 10 min at 96 °C. Copy CX-primer was added to the elongation mixture along with 0.1 μL ([NT]) and 2.5 units Taq-polymerase, followed by the following PCR: 94 °C for 5 min; 30 cycles of 94 °C for 30 s, 50 °C for 30 s, and 72 °C for 40 s, and 72 °C for 5 min. TBE buffer and (12%) nondenaturing PAAG electrophoresis were used to visualize the PCR product. 10 μL of each sample was placed in each well of gel comb. The gels were stained with the SYBR Green I (Invitrogen, Grand Island, NY, USA), then photographed under the UV light in ChemiDocTM XRS imaging system and analyzed with GelAnalyzer 2010.

SK-MEL-28 = assay: NCI-60 in vitro anticancer screening (SRB); settings: SK-MEL-28, Melanoma; 10 µM, 48 h
Method: as §2

CAKI-1 = assay: NCI-60 in vitro anticancer screening (SRB); settings: CAKI-1, Renal cancer; 10 µM, 48 h
Method: as §2

KM12 = assay: NCI-60 in vitro anticancer screening (SRB); settings: KM12, Colon cancer; 10 µM, 48 h
Method: as §1

NCI-H460 = assay: NCI-60 in vitro anticancer screening (SRB); settings: NCI-H460, Lung cancer (NSCLC); 10 µM, 48 h
Method: as §1

RXF 393 = assay: NCI-60 in vitro anticancer screening (SRB); settings: RXF 393, Renal cancer; 10 µM, 48 h
Method: as §2

TK-10 = assay: NCI-60 in vitro anticancer screening (SRB); settings: TK-10, Renal cancer; 10 µM, 48 h
Method: as §1

UACC-257 = assay: NCI-60 in vitro anticancer screening (SRB); settings: UACC-257, Melanoma; 10 µM, 48 h
Method: as §1

SNB-19 = assay: NCI-60 in vitro anticancer screening (SRB); settings: SNB-19, CNS cancer; 10 µM, 48 h
Method: as §1

A549/ATCC = assay: NCI-60 in vitro anticancer screening (SRB); settings: Lung cancer (NSCLC), 10 µM, 48 h
Method: as §1

MDA-MB-435 = assay: NCI-60 in vitro anticancer screening (SRB); settings: MDA-MB-435, Melanoma; 10 µM, 48 h
Method: as §2

RPMI-8226 = assay: NCI-60 in vitro anticancer screening (SRB); settings: RPMI-8226, Leukemia; 10 µM, 48 h
Method: as §1

HT29 = assay: NCI-60 in vitro anticancer screening (SRB); settings: HT29, Colon cancer; 10 µM, 48 h
Method: as §1

NCI-H23 = assay: NCI-60 in vitro anticancer screening (SRB); settings: NCI-H23, Lung cancer (NSCLC); 10 µM, 48 h
Method: as §1

SK-OV-3 = assay: NCI-60 in vitro anticancer screening (SRB); settings: SK-OV-3, Ovarian cancer; 10 µM, 48 h
Method: as §1

SF-539 = assay: NCI-60 in vitro anticancer screening (SRB); settings: SF-539, CNS cancer; 10 µM, 48 h
Method: as §1

MDA-MB-231/ATCC = assay: NCI-60 in vitro anticancer screening (SRB); settings: Breast cancer, 10 µM, 48 h
Method: as §2

786-0 = assay: NCI-60 in vitro anticancer screening (SRB); settings: 786-0, Renal cancer; 10 µM, 48 h
Method: as §1

SK-MEL-2 = assay: NCI-60 in vitro anticancer screening (SRB); settings: SK-MEL-2, Melanoma; 10 µM, 48 h
Method: as §2

BT-549 = assay: NCI-60 in vitro anticancer screening (SRB); settings: BT-549, Breast cancer; 10 µM, 48 h
Method: as §2

PC-3 = assay: NCI-60 in vitro anticancer screening (SRB); settings: PC-3, Prostate cancer; 10 µM, 48 h
Method: as §1

SW-620 = assay: NCI-60 in vitro anticancer screening (SRB); settings: SW-620, Colon cancer; 10 µM, 48 h
Method: as §1

K-562 = assay: NCI-60 in vitro anticancer screening (SRB); settings: K-562, Leukemia; 10 µM, 48 h
Method: as §1

HCT-15 = assay: NCI-60 in vitro anticancer screening (SRB); settings: HCT-15, Colon cancer; 10 µM, 48 h
Method: as §1

DU-145 = assay: NCI-60 in vitro anticancer screening (SRB); settings: DU-145, Prostate cancer; 10 µM, 48 h
Method: as §1

EKVX = assay: NCI-60 in vitro anticancer screening (SRB); settings: Lung cancer (NSCLC), 10 µM, 48 h
Method: as §1

OVCAR-5 = assay: NCI-60 in vitro anticancer screening (SRB); settings: OVCAR-5, Ovarian cancer; 10 µM, 48 h
Method: as §1

IGROV1 = assay: NCI-60 in vitro anticancer screening (SRB); settings: IGROV1, Ovarian cancer; 10 µM, 48 h
Method: as §1

T-47D = assay: NCI-60 in vitro anticancer screening (SRB); settings: Breast cancer, 10 µM, 48 h
Method: as §2

N#C/C(=C\c1ccc2ccccc2c1)C(=O)Nc1sc2c(c1C#N)CCCC2 [Compound 36b, (2E)-2-Cyano-N-(3-cyano-4,5,6,7-tetrahydro-1-benzothiophen-2-yl)-3-(naphthalen-2-yl)prop-2-enamide]
Growth Percent (OVCAR-4): 100.16% | Growth Percent (M14): 94.57% | Growth Percent (OVCAR-8): 102.91% | Growth Percent (SR): 95.72% | Growth Percent (HCT-116): 100.18% | % Telomerase Activity in Cancer Cells [1]: 25.1 ± 3.2% | Growth Percent (SK-MEL-28): 102.31% | Growth Percent (CAKI-1): 94.28% | Growth Percent (KM12): 101.43% | Growth Percent (NCI-H460): 102.88% | Growth Percent (RXF 393): 111.16% | Growth Percent (TK-10): 113.35% | Growth Percent (UACC-257): 102.32% | Growth Percent (SNB-19): 100.30% | Growth Percent (A549/ATCC): 100.18% | Growth Percent (MDA-MB-435): 101.92% | Growth Percent (RPMI-8226): 99.85% | Growth Percent (HT29): 112.60% | Growth Percent (NCI-H23): 94.56% | Growth Percent (SK-OV-3): 89.18% | Growth Percent (SF-539): 98.71% | Growth Percent (MDA-MB-231/ATCC): 92.15% | Growth Percent (786-0): 101.2% | Growth Percent (SK-MEL-2): 100.31% | Growth Percent (BT-549): 107.71% | Growth Percent (PC-3): 104.77% | Growth Percent (SW-620): 103.69% | Growth Percent (K-562): 99.98% | Growth Percent (HCT-15): 99.95% | Growth Percent (DU-145): 99.89% | Growth Percent (EKVX): 92.47% | Growth Percent (OVCAR-5): 104.98% | Growth Percent (IGROV1): 103.06% | Growth Percent (T-47D): 97.26%
